Patent US9376382B2, “N-substituted isopropyldimethyl azulene sulfonamide derivatives, and preparation method and use thereof” (Sichuan Guokang Pharmaceutical Co., Ltd., priority 2011, dated 2016)

Key:
[1] = High-temperature test (60° C.), stability study; format: physicochemical; conditions: open-stored; for Appearance Day 5: Day 5, cell wraps; for Appearance Day 5 / Appearance Day 10: first line given; for Appearance Day 10: Day 10, cell wraps;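 as to all read-outs here: samples kept uncovered in dishes at 60 °C for up to 10 days and examined on Day 5 and Day 10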
Experimental: (§1) The test samples were open-stored in culture dishes at 60° C. for 10 days, and taken and detected on Day 5 and Day 10. • The characteristics, especially colour change were observed. • Melting points were measured by automatic melting point apparatus. • By self-reflection, TLC is used to observe whether the spot numbers were increased after 5 days and 10 days.

[2] = Intense light irradiation test (4500LX ± 500LX), stability study; format: physicochemical; conditions: for Appearance Day 0: Day 0, cell wraps; for Appearance Day 0 / Appearance Day 5 / Appearance Day 10: first line given; for Appearance Day 5: Day 5, cell wraps; for Appearance Day 10: Day 10, cell wraps
Experimental: (§2) The test samples were open-stored in “adjustable light boxes” under the conditions of illumination of 4500LX±500LX for 10 days, and taken and detected on Day 5 and Day 10 with regards to dry items. • The characteristics, especially colour change was observed. • Melting points were measured by an automatic melting point apparatus. • By self-reflection, TLC is used to observe whether the spot numbers were increased after 5 days and 10 days.

[3] = High humidity test (25° C., relative humidity 90% ± 5%), stability study; format: physicochemical; conditions: RH 90% ± 5%; for Appearance Day 0: Day 0, cell wraps; for Appearance Day 0 / Appearance Day 5 / Appearance Day 10: first line given; for Appearance Day 5: Day 5, cell wraps; for Appearance Day 10: Day 10, cell wraps;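 as to all read-outs here: samples kept uncovered in sealed humidity desiccators, appearance judged mainly by colour change, melting point on an automatic apparatus, TLC checked for extra spots versus start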
Experimental: (§3) The test samples were open-stored in closed constant humidity desiccators under the condition of 25° C. and relative humidity of 90%+5% for 10 days, and taken and detected on Day 5 and Day 10. Meanwhile, each sample was accurately weighed before and after test.
The characteristics, especially colour change was observed.
Melting points were measured by an automatic melting point apparatus.
By self-reflection, TLC is used to observe whether the spot numbers were increased after 5 days and 10 days.

[4] = Stability studies (light, humidity, heat), overall comparison; conditions: summary of high-temperature, high humidity and intense light tests
Experimental: as §1, §3, §2

[5] = system: ethanol-induced gastric ulcer; assay: Anhydrous ethanol-induced gastric ulcer in mice; format: in vivo, Kunming mice; design: key to Gastri ulcer score (X ± SD) / Ulcer score (X ± SD) / Gastric ulcer score (X ± SD): summed pathology score: congestion 1, hemorrhage/erosion 1, linear erosion 3; conditions: for Inhibition rate (%) / Gastri ulcer score (X ± SD): Table 4; for Inhibition rate (%): inhibition rate of ulcer vs model group; for Gastri ulcer score (X ± SD): mice, intragastric once a day for five days, dose equimolar to azulene sulfonate sodium 3.0 mg/kg (Omeprazole 13.4 mg/kg), model group 13.00 ± 1.77; for anti-gastric ulcer effect in words: ethanol-induced gastric ulcer in mice, compared to the model group
Experimental: Kunming mice, half male and half female, weighing 18-22 g, provided by the West China Animal Center
(1) Azulene sodium sulphonate was added with 0.5% CMC to prepare a suspension with concentration of 0.15 mg/ml.
(2) 20 mg of Omeprazole was added with 0.5% CMC to prepare a suspension with concentration of 0.67 mg/ml.
Kunming mice were randomly grouped according the body weight (one model control group or negative control group, one Omeprazole control group or positive control group, one Azulene sodium sulphonate control group, twelve test drug groups), eight mice for each group, half male and half female.
Administration: Model control group was administrated intragastrically with 0.5% CMC solution at a dose of 0.4 ml/20 g; Omeprazole control group was administrated intragastrically with Omeprazole at a dose of 0.4 ml/20 g, Azulene sodium sulphonate control group and each test drug groups were administrated intragastrically with their respective drug at a dose of 0.4 ml/20 g. The mice in each group were administrated once a day for successive five days. 0.5 hour after final administration, the mice in each group were administrated intragastrically with 0.5 ml of anhydrous ethanol, one hour later the mice were executed and dissected, and their stomaches were taken, washed and scored according to the pathological degree. For local congestion and rubefaction, score was 1; for petechial hemorrhage or erosion, score was respectively 1, for each linear erosion, score was 3. Statistical analysis was performed. Ulcer scores were calculated, significant differences between the groups were compared and the inhibition rates of ulcer were calculated [Inhibition rate of ulcer=(ulcer score of model group−ulcer score of drug administration group)/ulcer score of model group].

[6] = Stability of the purified compound in the air; format: physicochemical

Row | melting point | Melting point Day 0 [1] | Spot numbers on TLC Day 0 [1] | Melting point Day 5 [1] | Spot numbers on TLC Day 5 [1] | Appearance Day 5 [1] | Melting point Day 10 [1] | Spot numbers on TLC Day 10 [1] | Appearance Day 10 [1] | Spot numbers on TLC Day 0 [2] | Appearance Day 0 [2] | Spot numbers on TLC Day 5 [2] | Appearance Day 5 [2] | Spot numbers on TLC Day 10 [2] | Appearance Day 10 [2] | Melting point Day 0 [3] | Spot numbers on TLC Day 0 [3] | hygroscopic rate (%) Day 0 [3] | Appearance Day 0 [3] | Melting point Day 5 [3] | Structure (SMILES) | also measured
1 | 114 to 116 °C | 114.0-115.5 °C | 1 | 114.5-116.0 °C | 1 | purple | 113.5-115.0 °C | 1 | purple | 1 | purple | 1 | purple | 1 | purple | 114.0-115.5 °C | 1 | 0.97% | purple | 114.0-115.5 °C | COc1ccc(NS(=O)(=O)c2cc(C)c3cc(C(C)C)ccc(C)c2-3)c(OC)c1 [4b, N-(2,4-dimethoxyphenyl)-3,8-dimethyl-5-isopropyl-1-azulene sulfonamide] | Spot numbers on TLC Day 5 [3]: 1; hygroscopic rate (%) Day 5 [3]: 1.24%; Appearance Day 5 [3]: purple; Melting point Day 10 [3]: 114.0-115.5 °C; Spot numbers on TLC Day 10 [3]: 1; Appearance Day 10 [3]: purple; light, humidity and heat stability in words [4]: better light, humidity and heat stability than azulene sulfonate sodium; Inhibition rate (%) [5]: 52.77%; Gastri ulcer score (X ± SD) [5]: 6.14 ± 2.85; anti-gastric ulcer effect in words [5]: significantly relieve the pathological degree
2 | 140 to 142 °C | 140.0-142.5 °C | 1 | 141.5-142.5 °C | 1 | purple | 140.0-142.5 °C | 1 | purple | 1 | purple | 1 | purple | 1 | purple | 140.0-142.5 °C | 1 | 1.23% | purple | 140.0-142.5 °C | Cc1cc(S(=O)(=O)Nc2cccc3ccccc23)c2c(C)ccc(C(C)C)cc1-2 [4d, N-(1-naphthyl)-3,8-dimethyl-5-isopropyl-1-azulene sulfonamide] | Melting point Day 0 [2]: 140.0-142.5 °C; Melting point Day 5 [2]: 141.5-143.0 °C; Melting point Day 10 [2]: 140.0-142.0 °C; Spot numbers on TLC Day 5 [3]: 1; hygroscopic rate (%) Day 5 [3]: 1.61%; Appearance Day 5 [3]: purple; Melting point Day 10 [3]: 140.0-142.5 °C; Spot numbers on TLC Day 10 [3]: 1; Appearance Day 10 [3]: purple; light, humidity and heat stability in words [4]: better light, humidity and heat stability than azulene sulfonate sodium; Inhibition rate (%) [5]: 50.54%; Gastri ulcer score (X ± SD) [5]: 6.43 ± 2.99; anti-gastric ulcer effect in words [5]: significantly relieve the pathological degree
3 | 108 to 109 °C | 107.5-108.5 °C | 1 | 107.0-108.5 °C | 1 | purple | 107.0-108.5 °C | 1 | purple | 1 | purple | 1 | purple | 1 | purple | 108.5-109.0 °C | 1 | 1.89% | purple | 108.5-109.5 °C | Cc1cc(S(=O)(=O)NC2CCCCC2)c2c(C)ccc(C(C)C)cc1-2 [4i, N-cyclohexyl-3,8-dimethyl-5-isopropyl-1-azulene sulfonamide] | Melting point Day 0 [2]: 107.5-108.5 °C; Melting point Day 5 [2]: 107.5-108.5 °C; Spot numbers on TLC Day 5 [3]: 1; hygroscopic rate (%) Day 5 [3]: 2.35%; Appearance Day 5 [3]: purple; Melting point Day 10 [3]: 107.5-108.5 °C; Spot numbers on TLC Day 10 [3]: 1; Appearance Day 10 [3]: purple; light, humidity and heat stability in words [4]: better light, humidity and heat stability than azulene sulfonate sodium; Inhibition rate (%) [5]: 50.92%; Gastri ulcer score (X ± SD) [5]: 6.38 ± 3.85; anti-gastric ulcer effect in words [5]: significantly relieve the pathological degree

Continued, compound first:

Row | Structure (SMILES) | melting point | Melting point Day 0 [1] | Spot numbers on TLC Day 0 [1] | Melting point Day 5 [1] | Spot numbers on TLC Day 5 [1] | Appearance Day 5 [1] | Melting point Day 10 [1] | Spot numbers on TLC Day 10 [1] | Appearance Day 10 [1] | Spot numbers on TLC Day 0 [2] | Appearance Day 0 [2] | Spot numbers on TLC Day 5 [2] | Appearance Day 5 [2] | Spot numbers on TLC Day 10 [2] | Appearance Day 10 [2] | Melting point Day 0 [3] | Spot numbers on TLC Day 0 [3] | hygroscopic rate (%) Day 0 [3] | Appearance Day 0 [3] | Melting point Day 5 [3] | also measured
4 | Cc1cc(S(=O)(=O)Nc2cccc(Br)c2)c2c(C)ccc(C(C)C)cc1-2 [4a, N-(3-bromophenyl)-3,8-dimethyl-5-isopropyl-1-azulene sulfonamide] | 172 to 174 °C | 172.5-174.0 °C | 1 | 172.0-173.5 °C | 1 | purple | 172.5-174.0 °C | 1 | purple | 1 | purple | 1 | purple | 1 | purple | 172.5-174.0 °C | 1 | 1.01% | purple | 172.0-174.5 °C | Melting point Day 0 [2]: 172.5-174.0 °C; Melting point Day 5 [2]: 172.0-175.0 °C; Melting point Day 10 [2]: 173.0-174.0 °C; Spot numbers on TLC Day 5 [3]: 1; hygroscopic rate (%) Day 5 [3]: 1.46%; Appearance Day 5 [3]: purple; Melting point Day 10 [3]: 172.0-174.5 °C; Spot numbers on TLC Day 10 [3]: 1; Appearance Day 10 [3]: purple; light, humidity and heat stability in words [4]: better light, humidity and heat stability than azulene sulfonate sodium; Inhibition rate (%) [5]: 51.31%; Gastri ulcer score (X ± SD) [5]: 6.33 ± 4.50; anti-gastric ulcer effect in words [5]: significantly relieve the pathological degree
5 | Cc1cc(S(=O)(=O)NN)c2c(C)ccc(C(C)C)cc1-2 [4m, N-amino-3,8-dimethyl-5-isopropyl-1-azulene sulfonamide] | – | – | – | – | – | – | – | – | – | – | – | – | – | – | – | – | – | – | – | – | stability in the air [6]: deteriorated soon in the air and had a very poor stability
